Strand notation (5' to 3'): a small letter for the sugar, then the base; units joined by * are phosphorothioate-linked, units joined directly phosphodiester-linked; [ ] holds rarer units or linkages, { } end groups; capitals alone tell only the bases. k = constrained ethyl (cEt); [5mC] = 5-methylcytosine; d = 2'-deoxy (DNA)
Experiments:
[1] = tested on: human SMAD7 mRNA; assay: Antisense inhibition of human SMAD7 mRNA expression in Hep3B cells by 3-10-3 cEt gapmers, 10,000 nM, electroporation (Example 2); type: cell-based; conditions: approximately 24 hours
Procedure, shortened: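 Hep3B cells (20,000 per well) were electroporated with 10,000 nM 16-mer 3-10-3 cEt gapmer (phosphorothioate, 5-methylcytosine). After about 24 h, SMAD7 mRNA was quantified by qRT-PCR with primer probe set RTS5062, normalised to RIBOGREEN total RNA, and expressed as percent inhibition versus untreated cells.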

[2] = tested on: human SMAD7 mRNA; assay: Dose-dependent inhibition of human SMAD7 mRNA expression in Hep3B cells (Example 3, Study 1 and 2); type: cell-based; conditions: electroporation; for % inhibition of SMAD7 mRNA expression: approximately 16 hours; for IC50: Study 2 (740-20000 nM)
Protocol: The antisense oligonucleotides were tested in a series of experiments that had similar culture conditions as described below.
(§1) Cells were plated at a density of 20,000 cells per well and transfected using electroporation with 0.31 μM, 1.25 μM, 5.00 μM, or 20.00 μM concentrations of antisense oligonucleotide, as specified in the Tables below. ION 483663 was included in the assays for comparison. After a treatment period of approximately 16 hours, RNA was isolated from the cells and SMAD7 mRNA levels were measured by quantitative real-time PCR. Primer probe set RTS5062 was used to measure human SMAD7 mRNA levels. SMAD7 mRNA levels were adjusted according to total RNA content, as measured by RIBOGREEN®. Results are presented as percent inhibition of SMAD7 mRNA expression, relative to untreated control cells.
The half maximal inhibitory concentration (IC50) of each oligonucleotide is also presented.
as §1, with “0.74” for “0.31”, “2.22” for “1.25”, “6.67” for “5.00”, “below.” for “below. ION 483663 was included in the assays for comparison.”

[3] = Hep3B cells, electroporation with 10,000 nM antisense oligonucleotide, RTS5062, percent inhibition of SMAD7 mRNA relative to untreated control cells
[4] = 740 nM, Study 2, relative to untreated control cells
[5] = SMAD7 mRNA, Hep3B cells, 10,000 nM antisense oligonucleotide, electroporation, primer probe set RTS5062, relative to untreated control cells
[6] = Hep3B cells, electroporation with 10,000 nM antisense oligonucleotide, primer probe set RTS5062, relative to untreated control cells
[7] = Hep3B cells, electroporation, 10,000 nM antisense oligonucleotide, RTS5062, relative to untreated control cells
[8] = Hep3B cells, electroporation with 10,000 nM antisense oligonucleotide, SMAD7 mRNA by RT-PCR (RTS5062), relative to untreated control cells

## 799568 (k[5mC]*kA*kT*dT*dA*dG*dA*dA*dG*d[5mC]*dT*dT*dT*kG*kA*kG; antisense) [compound 799568]
[1]; [3]
  % Inhibition: 62%
[2]; [4]
  % inhibition of SMAD7 mRNA expression: 49%
[2]; 2220 nM, Study 2
  % inhibition of SMAD7 mRNA expression: 58%
[2]; 6670.0 nM, Study 2
  % inhibition of SMAD7 mRNA expression: 84%
[2]; 20000.0 nM, Study 2
  % inhibition of SMAD7 mRNA expression: 92%
[2]
  IC50: 6 µM

## 829776 (antisense kG*k[5mC]*kG*dA*dG*dT*dA*dG*dG*dA*d[5mC]*dG*dA*kG*kG*kG) [compound 829776]
[1]; [5]
  % Inhibition: 64%
[2]; [4]
  % inhibition of SMAD7 mRNA expression: 26%
[2]; 2220 nM, Study 2
  % inhibition of SMAD7 mRNA expression: 40%
[2]; 6670.0 nM, Study 2
  % inhibition of SMAD7 mRNA expression: 66%
[2]; 20000.0 nM, Study 2
  % inhibition of SMAD7 mRNA expression: 81%
[2]
  IC50: 5 µM

## 799070 (antisense kA*kG*kG*dG*dA*dA*dT*dA*dA*dG*dA*d[5mC]*dA*kA*kG*kG) [compound 799070]
[1]; [6]
  % inhibition of SMAD7 mRNA expression: 67%
[2]; [4]
  % inhibition of SMAD7 mRNA expression: 0%
[2]; 2220 nM, Study 2
  % inhibition of SMAD7 mRNA expression: 44%
[2]; 6670.0 nM, Study 2
  % inhibition of SMAD7 mRNA expression: 42%
[2]; 20000.0 nM, Study 2
  % inhibition of SMAD7 mRNA expression: 60%
[2]
  IC50: 4 µM

## 799563 (kA*kA*kA*dA*d[5mC]*dA*dA*dA*d[5mC]*dA*dA*dG*dG*kG*kT*k[5mC]; antisense) [compound 799563]
[1]; [7]
  % inhibition of SMAD7 mRNA expression: 68%
[2]; [4]
  % inhibition of SMAD7 mRNA expression: 32%
[2]; 2220 nM, Study 2
  % inhibition of SMAD7 mRNA expression: 57%
[2]; 6670.0 nM, Study 2
  % inhibition of SMAD7 mRNA expression: 85%
[2]; 20000.0 nM, Study 2
  % inhibition of SMAD7 mRNA expression: 88%
[2]
  IC50: 5 µM

## 799486 (antisense k[5mC]*kA*kT*dA*dA*dT*dG*dA*d[5mC]*dT*dT*dA*dT*k[5mC]*k[5mC]*kA) [compound 799486]
[1]; [8]
  % Inhibition: 52%
[2]; [4]
  % inhibition of SMAD7 mRNA expression: 20%
[2]; 2220 nM, Study 2
  % inhibition of SMAD7 mRNA expression: 17%
[2]; 6670.0 nM, Study 2
  % inhibition of SMAD7 mRNA expression: 57%
[2]; 20000.0 nM, Study 2
  % inhibition of SMAD7 mRNA expression: 88%
[2]
  IC50: 11 µM

## 800025 (kA*kG*kT*dA*d[5mC]*dA*dA*dG*dG*dA*d[5mC]*dT*dA*kA*kG*kG; antisense) [compound 800025]
[1]; [8]
  % Inhibition: 65%
[2]; [4]
  % inhibition of SMAD7 mRNA expression: 0%
[2]; 2220 nM, Study 2
  % inhibition of SMAD7 mRNA expression: 42%
[2]; 6670.0 nM, Study 2
  % inhibition of SMAD7 mRNA expression: 55%
[2]; 20000.0 nM, Study 2
  % inhibition of SMAD7 mRNA expression: 74%
[2]
  IC50: 6 µM

## 800031 (kA*kG*kA*dA*dA*d[5mC]*dA*d[5mC]*dA*dG*dT*dT*d[5mC]*k[5mC]*k[5mC]*kT; antisense) [compound 800031]
[1]; Hep3B cells, 10,000 nM antisense oligonucleotide, electroporation, RT-PCR primer probe set RTS5062, relative to untreated control cells
  % Inhibition: 52%
[2]; [4]
  % inhibition of SMAD7 mRNA expression: 10%
[2]; 2220 nM, Study 2
  % inhibition of SMAD7 mRNA expression: 39%
[2]; 6670.0 nM, Study 2
  % inhibition of SMAD7 mRNA expression: 57%
[2]; 20000.0 nM, Study 2
  % inhibition of SMAD7 mRNA expression: 69%
[2]
  IC50: 8 µM

## 799718 (antisense k[5mC]*kT*kG*d[5mC]*dT*dA*dG*dG*dG*dA*dT*dA*d[5mC]*kT*kG*kA) [compound 799718]
[1]; [7]
  % inhibition of SMAD7 mRNA expression: 65%
[2]; [4]
  % inhibition of SMAD7 mRNA expression: 23%
[2]; 2220 nM, Study 2
  % inhibition of SMAD7 mRNA expression: 52%
[2]; 6670.0 nM, Study 2
  % inhibition of SMAD7 mRNA expression: 66%
[2]; 20000.0 nM, Study 2
  % inhibition of SMAD7 mRNA expression: 72%
[2]
  IC50: 4 µM

## 799734 (antisense kT*k[5mC]*k[5mC]*d[5mC]*dA*dG*dG*dT*dG*dA*dA*d[5mC]*d[5mC]*k[5mC]*kA*k[5mC]) [compound 799734]
[1]; [7]
  % inhibition of SMAD7 mRNA expression: 45%
[2]; [4]
  % inhibition of SMAD7 mRNA expression: 8%
[2]; 2220 nM, Study 2
  % inhibition of SMAD7 mRNA expression: 44%
[2]; 6670.0 nM, Study 2
  % inhibition of SMAD7 mRNA expression: 64%
[2]; 20000.0 nM, Study 2
  % inhibition of SMAD7 mRNA expression: 67%
[2]
  IC50: 8 µM

## 830144 (antisense kG*kG*kG*dT*dG*dT*dG*d[5mC]*dA*d[5mC]*d[5mC]*dA*dG*kG*kT*kG) [compound 830144]
[1]; [8]
  % Inhibition: 66%
[2]; [4]
  % inhibition of SMAD7 mRNA expression: 47%
[2]; 2220 nM, Study 2
  % inhibition of SMAD7 mRNA expression: 68%
[2]; 6670.0 nM, Study 2
  % inhibition of SMAD7 mRNA expression: 85%
[2]; 20000.0 nM, Study 2
  % inhibition of SMAD7 mRNA expression: 96%
[2]
  IC50: 1 µM

## 799312 (antisense k[5mC]*kA*kT*d[5mC]*dT*dT*dT*dA*dA*dG*d[5mC]*dA*d[5mC]*kG*k[5mC]*kT) [compound 799312]
[1]; [3]
  % Inhibition: 66%
[2]; [4]
  % inhibition of SMAD7 mRNA expression: 23%
[2]; 2220 nM, Study 2
  % inhibition of SMAD7 mRNA expression: 46%
[2]; 6670.0 nM, Study 2
  % inhibition of SMAD7 mRNA expression: 49%
[2]; 20000.0 nM, Study 2
  % inhibition of SMAD7 mRNA expression: 69%
[2]
  IC50: 4 µM

## 799781 (kG*kT*k[5mC]*dA*dA*dT*dA*d[5mC]*dA*dT*dA*dT*dT*kT*kG*k[5mC]; antisense) [compound 799781]
[1]; [3]
  % Inhibition: 66%
[2]; [4]
  % inhibition of SMAD7 mRNA expression: 23%
[2]; 2220 nM, Study 2
  % inhibition of SMAD7 mRNA expression: 75%
[2]; 6670.0 nM, Study 2
  % inhibition of SMAD7 mRNA expression: 72%
[2]; 20000.0 nM, Study 2
  % inhibition of SMAD7 mRNA expression: 92%
[2]
  IC50: > 20 µM

## 799605 (k[5mC]*k[5mC]*kA*dA*dT*dA*dA*dA*dG*dT*dT*d[5mC]*d[5mC]*k[5mC]*kT*kT; antisense) [compound 799605]
[1]; [3]
  % Inhibition: 56%
[2]; [4]
  % inhibition of SMAD7 mRNA expression: 18%
[2]; 2220 nM, Study 2
  % inhibition of SMAD7 mRNA expression: 46%
[2]; 6670.0 nM, Study 2
  % inhibition of SMAD7 mRNA expression: 51%
[2]; 20000.0 nM, Study 2
  % inhibition of SMAD7 mRNA expression: 75%
[2]
  IC50: 8 µM

## 798987 (antisense kA*kA*kT*dG*dA*dT*dG*dA*d[5mC]*d[5mC]*dG*d[5mC]*d[5mC]*k[5mC]*k[5mC]*k[5mC]) [compound 798987]
[1]; [6]
  % inhibition of SMAD7 mRNA expression: 84%
[2]; [4]
  % inhibition of SMAD7 mRNA expression: 0%
[2]; 2220 nM, Study 2
  % inhibition of SMAD7 mRNA expression: 0%
[2]; 6670.0 nM, Study 2
  % inhibition of SMAD7 mRNA expression: 8%
[2]; 20000.0 nM, Study 2
  % inhibition of SMAD7 mRNA expression: 47%
[2]
  IC50: 4 µM

## 830010 (antisense kG*kT*k[5mC]*dT*d[5mC]*dA*dA*dA*dT*dG*dG*dG*d[5mC]*kT*kT*k[5mC]) [compound 830010]
[1]; SMAD7 mRNA, Hep3B cells, electroporation with 10,000 nM antisense oligonucleotide, primer probe set RTS5062, relative to untreated control cells
  % Inhibition: 68%
[2]; [4]
  % inhibition of SMAD7 mRNA expression: 0%
[2]; 2220 nM, Study 2
  % inhibition of SMAD7 mRNA expression: 12%
[2]; 6670.0 nM, Study 2
  % inhibition of SMAD7 mRNA expression: 52%
[2]; 20000.0 nM, Study 2
  % inhibition of SMAD7 mRNA expression: 72%
[2]
  IC50: 1 µM

## 829762 (antisense k[5mC]*k[5mC]*kT*dT*d[5mC]*dA*dG*dA*dT*d[5mC]*d[5mC]*dG*d[5mC]*k[5mC]*kT*k[5mC]) [compound 829762]
[1]; [5]
  % Inhibition: 67%
[2]; [4]
  % inhibition of SMAD7 mRNA expression: 27%
[2]; 2220 nM, Study 2
  % inhibition of SMAD7 mRNA expression: 41%
[2]; 6670.0 nM, Study 2
  % inhibition of SMAD7 mRNA expression: 59%
[2]; 20000.0 nM, Study 2
  % inhibition of SMAD7 mRNA expression: 78%
[2]
  IC50: > 20 µM

## 790732 (kG*k[5mC]*kT*dT*dA*dT*dT*dT*d[5mC]*dA*dT*dG*dT*kG*kG*kT; antisense) [compound 790732]
[1]; [5]
  % Inhibition: 69%
[2]; [4]
  % inhibition of SMAD7 mRNA expression: 70%
[2]; 2220 nM, Study 2
  % inhibition of SMAD7 mRNA expression: 78%
[2]; 6670.0 nM, Study 2
  % inhibition of SMAD7 mRNA expression: 88%
[2]; 20000.0 nM, Study 2
  % inhibition of SMAD7 mRNA expression: 93%
[2]
  IC50: 2 µM

— patent US10517889B2, “Modulators of SMAD7 expression” (Ionis Pharmaceuticals, Inc., priority 2017, dated 2019)
